Where two headings read alike, the source gives them in different places. Bounds are passed on as bounds.

Common to all, as to assay: Cell viability (MTS) assay, cell killing
Holding throughout (assay type): cell-based, human

Assay [1] has as its system A431 cells. On the procedure:
(§1) After treatment the cells were incubated for 72 hr at 37° C. before the cell viability was determined by a MTS-assay, performed according to the manufacturer's instruction (CellTiter 96® AQueous One Solution Cell Proliferation Assay, Promega). Briefly, the MTS solution was diluted 20× in DMEM without phenol red (PAN-Biotech GmbH) supplemented with 10% FBS. The cells were washed once with 200 μL/PBS well, after which 100 μL diluted MTS solution was added/well. The plate was incubated for approximately 20-30 minutes at 37° C. Subsequently, the OD at 492 nm was measured on a Thermo Scientific Multiskan FC plate reader (Thermo Scientific). For quantification the background signal of ‘medium only’ wells was subtracted from all other wells, before the cell viability percentage of treated/untreated cells was calculated, by dividing the background corrected signal of treated wells over the background corrected signal of the untreated wells (×100).
(§2) Cells were seeded in a 96 well plate at 5.000-10.000 c/w in 100 μL/well and incubated overnight at 37° C. […] The media was removed from the cell culture plate and replaced by 180 μL culture media, followed by the addition of 20 μL treatment-mix/well. […]
(§3) After treatment the cells were incubated for 72 hr at 37° C. before the cell viability was determined by a MTS-assay, performed according to the manufacturer's instruction (CellTiter 96® AQueous One Solution Cell Proliferation Assay, Promega). […] Subsequently, the optical density at 492 nm was measured on a Thermo Scientific Multiskan FC plate reader (Thermo Scientific). For quantification the background signal of ‘medium only’ wells was subtracted from all other wells, before the ratio of […].

The subject of assay [2] is SK-BR-3 cells. Particulars: read-out: IC50 (calculated on concentration SO1861), + fixed 1.5 pM EGF-dianthin. The procedure: as §1, §2, §3
Assay [3] relates to CaSki cells. On the procedure: (§4) Cells were seeded in a 96 well plate at 5.000-10.000 c/w in 100 μL/well and incubated overnight at 37° C. […] The media was removed from the cell culture plate and replaced by 180 μL culture media, followed by the addition of 20 μL treatment-mix/well. […] In the case that endosomal acidification inhibitors (chloroquine (Sigma Aldrich) or bafilomycin A1 (Enzo Life Sciences)) were used, the cell culture media in step 1 of treatment was replaced by 180 μL media containing 1 μM chloroquine or 0.2 μM bafilomycin A1. The plate was incubated for 1 hour at 37° C., before the 10× treatment-mix samples were added. The remaining incubation and treatment steps were performed according to standard procedures known in the field.
(§5) After treatment the cells were incubated for 72 hr at 37° C. before the cell viability was determined by a MTS-assay, performed according to the manufacturer's instruction (CellTiter 96® AQueous One Solution Cell Proliferation Assay, Promega). Briefly, the MTS solution was diluted 20× in DMEM without phenol red (PAN-Biotech GmbH) supplemented with 10% FBS (PAN-Biotech GmbH). The cells were washed once with 200 μL PBS per well, after which 100 μL diluted MTS solution was added per well. The plate was incubated for approximately 20-30 minutes at 37° C. Subsequently, the optical density at 492 nm was measured on a Thermo Scientific Multiskan FC plate reader (Thermo Scientific). For quantification the background signal of ‘medium only’ wells was subtracted from all other wells, before the ratio of […].

In assay [4] the test system is HeLa cells. Particulars: + 1500 nM SO1861 (unconjugated). On the procedure:
as §4, §5

The test system of assay [5] is JIMT-1 cells. Particulars: + 1500 nM SO1861 (unconjugated). On the procedure: as §4, §5
Where [6] appears, read: read-out: IC50 (calculated on concentration SO1861), SO1861 or mAb-SO1861 titrated + fixed 50 pM trastuzumab-saporin.

For the molecule `CC(=O)O[C@H]1[C@H](O[C@@H]2OC[C@@H](O)[C@H](O)[C@H]2O)[C@@H](O)[C@H](O[C@@H]2[C@H](O)[C@@H](O[C@@H]3O[C@@H](C)[C@H](O[C@@H]4OC[C@@H](O)[C@H](O[C@@H]5OC[C@@H](O)[C@H](O)[C@H]5O)[C@H]4O)[C@@H](O)[C@H]3O)[C@H](OC(=O)[C@]34CCC(C)(C)C[C@H]3C3=CC[C@@H]5[C@@]6(C)CC[C@H](O[C@H]7O[C@H](C(=O)O)[C@@H](O)[C@H](O[C@@H]8OC[C@@H](O)[C@H](O)[C@H]8O)[C@H]7O[C@@H]7O[C@H](CO)[C@H](O)[C@H](O)[C@H]7O)[C@@](C)(C=O)[C@@H]6CC[C@@]5(C)[C@]3(C)C[C@H]4O)O[C@@H]2C)O[C@@H]1C` [SO1861], the IC50 in assay [1] (read-out: IC50 (calculated on concentration SO1861), + fixed 10 pM cetuximab-saporin) was 600 nM; in assay [1] (setting [6]), not below 1000 nM; in assay [2], 800 nM; in assay [3] (setting [6]), not below 1000 nM.
For the molecule Saporin, the IC50 was found to be 0.015 nM in assay [3] (+ 1500 nM SO1861 (unconjugated), read-out: IC50); 0.03 nM in assay [4]; 0.03 nM in assay [5].

(Values after patent publication US20230293708A1, “CONJUGATE OF SAPONIN AND SINGLE-DOMAIN ANTIBODY, PHARMACEUTICAL COMPOSITION COMPRISING SAID CONJUGATE, THERAPEUTIC USE THEREOF” (SAPREME TECHNOLOGIES B.V., priority 2020, published 2023).)
